The test system of data set [1] is subcutaneous mouse lymphoma (EL-4). The class given is in vivo. On the procedure:
EL-4 cells were injected into a C57Bl/6 mouse to generate a subcutaneous mouse lymphoma. 175 μl of an imaging medium comprising hyperpolarised sodium ^13C1-α-ketoisocaproate which was prepared as described in Example 2 was injected into the mouse over a time period of 6 s. The sodium ^13Ci-α-ketoisocaproate concentration in said imaging medium was about 50 mM. A 20 mm surface coil (tuned for carbon) was positioned over the subcutaneous tumour and signals of ^13C-α-ketoisocaproate and ^13C-leucine were detected by ^13C-MR spectroscopy which was carried out using a 2.4 T Bruker spectrometer to generate a metabolic profile of the tumour and the surrounding healthy tissue. A ^13C-chemical shift image was acquired with the following parameters: FOV 35×35 mm^2×10 mm, matrix size 16×16, 10 degree RF pulse, TR=35 ms. Total acquisition time was 11 seconds (die to triggering on breathing) and the chemical shift imaging started 15 seconds after the start of the injection of the imaging medium. Omniscan™ (GE Healthcare)—enhanced proton imaging was performed to confirm the tumour position and perfusion.

In data set [2] the test system is mouse liver. The experiment in a line: In vivo 13C-MR spectroscopy with surface coil over the liver in a mouse. The conditions noted are these: 175 μl of about 50 mM imaging medium injected over 6 s; liver region, 2.4 T, 10 spectra, repetition time 5 s. Details: species or system C57Bl/6 mouse. On the procedure:
175 μl of an imaging medium comprising hyperpolarised sodium ^13C1-α-ketoisocaproate which was prepared as described in Example 1 was injected into a C57Bl/6 mouse over a time period of 6 s. The sodium ^13C1-α-ketoisocaproate concentration in said imaging medium was about 50 mM. A 12 mm surface coil (tuned for carbon) was positioned over the mouse to cover the liver region and signals of ^13C-α-ketoisocaproate and ^13C-leucine were detected by ^13C-MR spectroscopy which was carried out in a 2.4 T Bruker spectrometer to generate a metabolic profile. A total of 10 ^13C-spectra were acquired with a repetition time of 5 s and 30 degree RF pulses. In this Example, the ^13C-leucine signal is approximately 1% of the ^13C-α-ketoisocaproate signal.

Data set [3] is described as follows: Tolerability in the animal models used. The class given is in vivo. The conditions noted are these: animal models of the Examples (mouse, rat). On the procedure:
In another preferred embodiment, the imaging medium comprising hyperpolarised ^13C-α-ketoisocaproate is administered repeatedly, thus allowing dynamic studies.

Setting [4] is: 175 μl of about 50 mM imaging medium, chemical shift imaging started 15 s after start of injection, 2.4 T.

The source of these data is patent US20110038804A1, “MR IMAGING AGENT, IMAGING MEDIUM AND METHODS OF IMAGING WHEREIN SUCH AN IMAGING MEDIUM IS USED” (priority 2007, published 2011).

With `CC(C)CC(=O)[13C](=O)[O-].[Na+]` [sodium ^13C1-α-ketoisocaproate], in data set [1] (setting [4]), the 13C-leucine distribution result was “confined to the tumour area” and the 13C-α-ketoisocaproate signal distribution result is “the highest in the large blood vessels”. For the same compound, the “ratio image (13C-leucine to 13C-α-ketoisocaproate)” value in data set [1] (confirmed by Omniscan-enhanced proton image) is listed as “defines the tumour area”. In data set [2], the “13C-leucine signal as share of the 13C-α-ketoisocaproate signal” value is “approximately 1%”.
On to “^13C-α-ketoisocaproate [hyperpolarised ^13C-α-ketoisocaproate]”, for which the tolerability entry in data set [3] is given as “well tolerated”.
